Source: patent US20160213639A1, “COMPOSITIONS AND METHODS FOR TREATING NON-ALCOHOLIC STEATOHEPATITIS” (MOCHIDA PHARMACEUTICAL CO., LTD., priority 2013, published 2016)

Tests used:
CYP450 = conditions: at free concentrations observed in humans; cited from earlier work
[1] = Hydrolysis in small intestine homogenates, lymph, plasma and liver homogenates; assay type: in vitro ADME; conditions: plasma and liver homogenates of the rat
[2] = set-up: species or system dogs; conditions: dog, in vivo, po, 30 mg/kg, 1 week
Experimental: (§1) Consequently, when EPA-E is administered orally to humans, it would appear that it is well absorbed, even though the unchanged ethyl ester form is not detected, and the free form (EPA) is only detected at a very low level, in the blood. Due to this absorption mechanism of essential fatty acids, the administered EPA-E exists as a blood-constituent fatty acid in the total lipids. In fact, according to the approval package document of Lovaza®, the free form of EPA is undetectable in the circulation (<1 μM) following an oral dose of 4 g of Omacor® (a mixture of the ethyl esters of EPA and DHA) Following oral administration of EPA-E, EPA, DPA and DHA were isolated and identified as metabolites in tissues and plasma. EPA, DPA and DHA were incorporated into TG and PL. Radioactivity was primarily excreted in expired air (44%) after single oral administration at 30 mg/kg EPA-E with minimal excretion in bile and urine (˜3%) and approximately 20% excreted in feces.

[3] = ADME of 14C-EPA-E in rats (absorption, distribution, metabolites, excretion); assay type: in vivo
Experimental: EPADEL® is a product containing ethyl all-cis-5,8,11,14,17-eicosapentaenoate (EPA-E), one of the n-3 essential fatty acids. The preclinical absorption, distribution, metabolism and excretion (ADME) characteristics of EPA-E have been determined primarily in rats.
After administration of ^14C-EPA-E into the ligated intestine of rats, the residual radioactivity in the intestine at 24 hours was only 4.6% of the administered dose. Radioactivity transferred to the plasma and lymph was mainly detected in the triglyceride (TG) fraction in the early phase after dosing, while distribution to the free fatty acid (FFA) fraction was slight at all timepoints. […] Orally administered EPA-E was primarily incorporated in adrenal gland lipids as cholesterol esters of the fatty acids eicosapentaenoic acid (EPA), docosapentaenoic acid (DPA) and docosahexaenoic acid (DHA).
as §1
Renal excretion was the elimination route for several minor highly polar metabolites (<0.4%), but EPA-E, EPA, DPA or DHA were not detected in the urine. In feces, EPA-E and EPA, evidently derived from the unabsorbed drug, were detected; however, no DPA or DHA was detected in the feces.
In the total lipid fraction of the liver, the radioactivity originated mainly from EPA, DPA and DHA. Thus, it is considered that EPA, DPA and DHA are the predominant metabolites of ^14C-EPA-E in tissues, as constituent fatty acids of the total lipid fraction.

Structure (SMILES)	CYP450 inhibition (CYP450)	hydrolysis [1]	radioactivity excreted in the urine [2] [%]	radioactivity recovered in the feces [2] [%]	residual radioactivity in the intestine ([3]; administration into the ligated intestine of rats, at 24 hours)	unchanged EPA-E in plasma or tissues ([3]; oral administration to the rat)	metabolites in the total lipid fraction of plasma and tissues ([3]; oral administration to the rat, liver, fat, heart and brain)	distribution of radioactivity in body tissues ([3]; rats)	absorption ([3]; single oral dose 30-1000 mg/kg, rats)
CC/C=C\C/C=C\C/C=C\C/C=C\C/C=C\CCCC(=O)O [EPA, eicosapentaenoic acid]	unlikely to inhibit CYP450								
CC/C=C\C/C=C\C/C=C\C/C=C\C/C=C\CCCC(=O)OCC [^14C-EPA-E]		hydrolyzed rapidly	1.0	19.2	4.6 % of the administered dose	no unchanged EPA-E was found	EPA, DPA and DHA were detected as metabolites	relatively high levels were observed especially in the brown fat, adrenal, liver and pancreas	well-absorbed, mainly through the lymphatic route
